Assay results: patent US20260158018A1, “PERFUSATE CONTAINING NICOTINAMIDE FOR INTRAOCULAR SURGERY, METHOD OF PREPARATION AND USE THEREOF” (EYE INSTITUTE OF SHANDONG FIRST MEDICAL UNIVERSITY …, priority 2023, published 2026)

Assays:
[1] = system: rabbit CECs; experiment: Rabbit lens phacoemulsification model with NAM-containing perfusate; format: in vivo, New Zealand white rabbits; conditions: for corneal transparency / edema: 2 days after surgery; for corneal transparency / edema / recovery of corneal thickness / protective effect on CECs in phacoemulsification: NAM versus Gln in perfusate; for corneal transparency / edema / recovery of corneal thickness: FIG. 7; for protective effect on CECs in phacoemulsification: conclusion
Procedure: Animals: New Zealand white rabbits (age, 1.5 years; weight, 5-7 kg) were purchased from Jinan Xilingjiao Biological Co., Ltd. New Zealand white rabbits were kept in a pathogen-free environment in the animal house of the Eye Institute of Shandong First Medical University.
Animal model: the pupils were dilated three times with 0.5% compound tropicamide eye drops. Sedation was performed first, and the rabbits were anesthetized according to 20 mg/kg intramuscular injection of xylazine hydrochloride injection and 3% pentobarbital sodium injection (15 mg/kg) intravenously at the ear margin. The right eye of each rabbit was subjected to phacoemulsification for lens removal using the WHITESTAR Signature® Phacoemulsification System (Signature, AMO, USA). The left eye was used as the normal eye. A 3.0-mm clear corneal tunnel incision was made at the position of 11 to 12 o'clock, and continuous curvilinear capsulorhexis was performed in the center of the anterior capsular membrane of the lens, with a torn capsule diameter of approximately 5.0 mm. Phacoemulsification was then performed to suction out the lens contents, including the nucleus of the lens and the residual lens cortex, with the setting of ultrasonication energy of 30-50% and the ultrasonication time of 4-6 min. At the end of the procedure, the New Zealand white rabbits were administered with tobramycin and dexamethasone eye ointment in the conjunctival sac.
Perfusate: balanced salt solution containing 1 mM NAM (refers to compound electrolyte intraocular irrigating solution, Shike®, Shenyang Xingqi Pharmaceutical Co., Ltd.): NAM was added to the balanced salt solution until the concentration of NAM in the perfusate was 1 mM; balanced salt solution containing 2.5 mM NAM: NAM was added to the balanced salt solution until the concentration of NAM in the perfusate was 2.5 mM; balanced salt solution containing 5 mM NAM: NAM was added to the balanced salt solution until the concentration of NAM in the perfusate was 5 mM; balanced salt solution alone as control group: an equal amount of PBS was added to the balanced salt solution.
Immunofluorescence staining: immunofluorescence detection of the expression of functional proteins ZO1 and ATP1A1.
Alizarin Red Staining: gross corneas of New Zealand rabbits were collected and fixed in sterile saline. The cornea was flattened by cutting it into four flaps using ophthalmic microscopic scissors. The corneas were stained with alizarin red staining solution for 2 min, followed by washing the corneas at least three times with sterile saline. Cover slips were put on, changes in the CECs of New Zealand rabbits were observed under a microscope, image acquisition was performed, and all experiments were repeated at least 3 times. Endothelial cell density, coefficient of variation, and hexagonal ratio were determined using alizarin red-stained images of New Zealand rabbit corneas. By using an endothelial microscope by 2 uninformed observers, cell density was normalized to the area of each image in square millimeters. For each image, an area containing at least 60 cells was selected.
Slit lamp photography: changes in corneal transparency in New Zealand rabbits were observed and recorded using a slit lamp.
Corneal thickness test: corneal thickness was analyzed and measured using optical coherence tomography (OCT) to measure central corneal thickness, with no less than three New Zealand rabbits measured at each time point.
Phacoemulsification was performed on New Zealand white rabbits, where NAM-containing intraocular perfusate was used for irrigation, and perfusate of the balanced salt solution alone was used as a control.

[2] = system: mouse CECs; conditions: mice treated with high IOP, reported in the literature; cited from earlier work
[3] = system: Human CECs line B4G12; experiment: Cellular assay: B4G12 cell damage induced by phacoemulsification in vitro; format: cell-based; conditions: 1 mM, 2.5 mM and 5 mM NAM; 1 hour and 24 hours after phacoemulsification; sonication 20 seconds, energy 30%; FIG. 8
Procedure: Preparation for cell culture in vitro: Human CECs line B4G12 was selected for culture, original medium was discarded, 3 mL of PBS buffer was added, 6.0 cm cell culture dish was shaken gently, rinsed twice, and PBS buffer was discarded. 1.0 mL of trypsin was added to completely cover the bottom of the dish, and the dish was placed in the incubator for 5 min. The dish gently shaken, tapped, and observed with a microscope. The adherent cells became suspended round cells, then 1.5 mL of complete medium [each 50 mL of human corneal endothelial cell basal medium (H-SFM, Creative Bioarray, New York, USA) supplemented with 1.5 mL of FBS and 0.5 mL of penicillin-streptomycin solution] was added to the flask on the laminar flow cabinet, and trypsin digestion of cells was stopped. The cells on all parts of the bottom of the flask were gently pipetted using the tip of the pipettor so that the cells became fully in suspension. The cell suspension was transferred to a 15 mL centrifuge tube and subjected to centrifugation at 1200 rpm for 5 min. After the centrifugation, the supernatant was discarded, 3 mL of complete medium was added to the centrifuge tube, and a resulting mixture was gently pipetted to eveness. The cells were allowed to resuspend sufficiently, then inoculated into 48-well cell culture plates at a cell density of 1×10^5 and incubated for 24 hours for subsequent experiments. […]

Structure (SMILES) | corneal transparency / edema [1] | recovery of corneal thickness [1] | protective effect on CECs in phacoemulsification [1] | protective effect on CECs during high IOP treatment [2] | intraocular pressure (IOP) after phacoemulsification ([1]; within 7 days after surgery, versus control group, FIG. 4) | apoptosis and cell survival of B4G12 cells after phacoemulsification [3]
NC(=O)CC[C@H](N)C(=O)O [Gln, glutamine] | still edematous | recovered more slowly | poor protective effect | protective effect on CECs in mice treated with high IOP | – | –
NC(=O)c1cccnc1 [NAM, nicotinamide] | transparent | recovered quickly | has a protective effect on CECs | – | did not cause a pathological increase in IOP within 7 days after surgery | could inhibit apoptosis induced by phacoemulsification and promote cell survival in a concentration-dependent manner
